According to ChEMBL document CHEMBL5338765, “Discovery of Potent and Wild-Type-Sparing Fourth-Generation EGFR Inhibitors for Treatment of Osimertinib-Resistance NSCLC” (J Med Chem, 2023):

What was measured:
in vivo [1] = settings: Sprague-Dawley, rat, po, 10 mg/kg
in vivo [2] = settings: Sprague-Dawley, rat, iv, 1 mg/kg
in vivo [3] = settings: Sprague-Dawley, rat, po, 10 mg/kg; remark: listed apart in the source
in vivo [4] = settings: Sprague-Dawley, rat, po, 10 mg/kg; remark: listed apart in the source
in vivo [5] = settings: Sprague-Dawley, rat, po, 10 mg/kg; remark: listed apart in the source
in vivo [6] = settings: Sprague-Dawley, rat, iv, 1 mg/kg; remark: listed apart in the source
in vivo [7] = settings: Sprague-Dawley, rat, iv, 1 mg/kg; remark: listed apart in the source
in vivo [8] = settings: Sprague-Dawley, rat, po, 10 mg/kg; remark: listed apart in the source
in vivo [9] = settings: Sprague-Dawley, rat, po, 10 mg/kg; remark: listed apart in the source
in vivo [10] = settings: Sprague-Dawley, rat, iv, 1 mg/kg; remark: listed apart in the source
in vivo [11] = settings: Sprague-Dawley, rat, iv, 1 mg/kg; remark: listed apart in the source
in vivo [12] = settings: Sprague-Dawley, rat, po, 10 mg/kg; remark: listed apart in the source
in vivo [13] = settings: Sprague-Dawley, rat, iv, 1 mg/kg; remark: listed apart in the source

CCS(=O)(=O)n1cc(-c2nc(Nc3ccc4c(ccn4CCN(C)C)c3)ncc2C(F)(F)F)c2ccccc21
bioavailability at 24 h (in vivo [1]): 28.1% | Tmax at 24 h (in vivo [2]): 4.8 min | half-life at 24 h (in vivo [3]): 5.37 h | MRT inf at 24 h (in vivo [4]): 9.62 h | Cmax at 24 h (in vivo [5]): 54.7 ng/mL | half-life at 24 h (in vivo [6]): 3.67 h | clearance at 24 h (in vivo [7]): 70.2 mL/min/kg | Tmax at 24 h (in vivo [8]): 8 h | AUC(0-inf) at 24 h (in vivo [9]): 678 ng·h/mL | Cmax at 24 h (in vivo [10]): 130 ng/mL | AUC(0-inf) at 24 h (in vivo [11]): 242 ng·h/mL | CL/F at 24 h (in vivo [12]): 278 mL/min/kg | MRT inf at 24 h (in vivo [13]): 4.33 h
